Among the data in ChEMBL document CHEMBL3102702, “Protein kinase and HDAC inhibitors from the endophytic fungus Epicoccum nigrum” (J Nat Prod, 2014) are IC50 values, retold here.

The target in assay [1] is Insulin-like growth factor 1 receptor (Homo sapiens, UniProt P08069). Put plainly: Inhibition of IGF1R (unknown origin).
The target in a further assay is Focal adhesion kinase 1 (Homo sapiens, UniProt Q05397). Kind of assay: Inhibition of FAK (unknown origin).
In assay [2] the target is Serine/threonine-protein kinase Nek6 (Homo sapiens, UniProt Q9HC98). Put plainly: Inhibition of NEK6 (unknown origin).
Assay [3] addresses Dual specificity mitogen-activated protein kinase kinase 1 (Homo sapiens, UniProt Q02750). Kind of assay: Inhibition of wild type MEK1 (unknown origin).
The target in assay [4] is T1, NUAK family SNF1-like kinase 1 (Homo sapiens, UniProt O60285).
T1 sequence (O60285 whole entry): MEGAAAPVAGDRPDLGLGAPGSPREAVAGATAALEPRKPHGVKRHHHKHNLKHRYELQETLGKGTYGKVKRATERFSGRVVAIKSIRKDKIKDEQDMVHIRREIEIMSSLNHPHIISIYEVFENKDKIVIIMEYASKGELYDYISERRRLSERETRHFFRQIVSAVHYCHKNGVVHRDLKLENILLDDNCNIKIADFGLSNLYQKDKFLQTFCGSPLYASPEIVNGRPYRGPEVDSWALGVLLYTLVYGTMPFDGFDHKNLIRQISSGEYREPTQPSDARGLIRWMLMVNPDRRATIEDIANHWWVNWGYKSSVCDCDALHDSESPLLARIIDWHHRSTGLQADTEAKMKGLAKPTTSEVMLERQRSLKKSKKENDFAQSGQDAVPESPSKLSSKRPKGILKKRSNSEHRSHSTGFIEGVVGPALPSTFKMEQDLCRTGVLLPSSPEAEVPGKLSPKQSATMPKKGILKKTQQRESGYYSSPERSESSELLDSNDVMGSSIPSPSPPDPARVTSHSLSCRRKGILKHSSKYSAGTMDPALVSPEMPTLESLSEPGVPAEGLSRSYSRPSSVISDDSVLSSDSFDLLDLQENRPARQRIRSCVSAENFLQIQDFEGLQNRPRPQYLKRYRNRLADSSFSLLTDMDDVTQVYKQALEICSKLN
Kind of assay: Inhibition of ARK5 (unknown origin).

The target of assay [5] is T2, Tyrosine-protein kinase receptor UFO (Homo sapiens, UniProt P30530).
T2 sequence (P30530 whole entry): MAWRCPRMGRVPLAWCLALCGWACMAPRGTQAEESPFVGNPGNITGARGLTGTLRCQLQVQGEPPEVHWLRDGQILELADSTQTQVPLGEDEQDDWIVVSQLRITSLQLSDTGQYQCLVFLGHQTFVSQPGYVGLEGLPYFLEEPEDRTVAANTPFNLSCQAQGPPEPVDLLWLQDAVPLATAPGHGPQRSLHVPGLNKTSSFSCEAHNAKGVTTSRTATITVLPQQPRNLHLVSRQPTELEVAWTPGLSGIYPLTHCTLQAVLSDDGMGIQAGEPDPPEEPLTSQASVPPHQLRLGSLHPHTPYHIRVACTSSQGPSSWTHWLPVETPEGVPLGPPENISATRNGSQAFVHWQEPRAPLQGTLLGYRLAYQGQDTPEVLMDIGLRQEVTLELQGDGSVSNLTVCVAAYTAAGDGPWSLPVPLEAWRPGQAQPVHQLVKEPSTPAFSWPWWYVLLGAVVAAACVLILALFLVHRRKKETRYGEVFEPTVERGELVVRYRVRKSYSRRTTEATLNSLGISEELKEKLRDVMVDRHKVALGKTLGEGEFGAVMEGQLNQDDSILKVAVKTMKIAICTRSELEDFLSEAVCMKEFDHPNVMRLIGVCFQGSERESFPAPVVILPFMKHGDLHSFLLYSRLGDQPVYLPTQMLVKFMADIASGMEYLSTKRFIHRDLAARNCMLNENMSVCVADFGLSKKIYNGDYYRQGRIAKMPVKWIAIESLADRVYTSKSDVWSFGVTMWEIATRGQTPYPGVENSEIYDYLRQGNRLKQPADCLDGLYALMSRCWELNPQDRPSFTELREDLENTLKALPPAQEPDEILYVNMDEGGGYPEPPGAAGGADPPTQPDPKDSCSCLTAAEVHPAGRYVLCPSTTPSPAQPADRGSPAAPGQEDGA
Kind of assay: Inhibition of AXL (unknown origin).

In assay [6] the target is RAC-alpha serine/threonine-protein kinase (Homo sapiens, UniProt P31749). Kind of assay: Inhibition of AKT1 (unknown origin).
Assay [7] concerns the target T3, Serine/threonine-protein kinase Nek2 (Homo sapiens, UniProt P51955).
T3 sequence (P51955 whole entry): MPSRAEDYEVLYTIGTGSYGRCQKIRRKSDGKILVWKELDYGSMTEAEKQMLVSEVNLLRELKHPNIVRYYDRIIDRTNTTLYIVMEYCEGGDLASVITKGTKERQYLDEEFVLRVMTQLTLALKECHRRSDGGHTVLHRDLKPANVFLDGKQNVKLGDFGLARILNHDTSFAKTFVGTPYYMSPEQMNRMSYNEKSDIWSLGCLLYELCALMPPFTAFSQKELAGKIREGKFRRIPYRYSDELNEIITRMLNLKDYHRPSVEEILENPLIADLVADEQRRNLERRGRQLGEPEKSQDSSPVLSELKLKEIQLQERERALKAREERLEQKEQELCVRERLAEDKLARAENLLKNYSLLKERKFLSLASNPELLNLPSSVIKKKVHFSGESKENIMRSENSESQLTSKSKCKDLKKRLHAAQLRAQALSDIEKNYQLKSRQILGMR
Kind of assay: Inhibition of NEK2 (unknown origin).

Assay [8] deals with Hepatocyte growth factor receptor (Homo sapiens, UniProt P08581). Kind of assay: Inhibition of wild type MET (unknown origin).
Assay [9] deals with Vascular endothelial growth factor receptor 2 (Homo sapiens, UniProt P35968). Put plainly: Inhibition of VEGFR2 (unknown origin).
The target in assay [10] is Proto-oncogene tyrosine-protein kinase Src (Homo sapiens, UniProt P12931). Kind of assay: Inhibition of SRC (unknown origin).
In assay [11] the target is Serine/threonine-protein kinase PLK1 (Homo sapiens, UniProt P53350). Kind of assay: Inhibition of PLK1 (unknown origin).
Assay [12] has as its target Serine/threonine-protein kinase pim-1 (Homo sapiens, UniProt P11309). Kind of assay: Inhibition of PIM1 (unknown origin).
The next assay addresses Aurora kinase B (Homo sapiens, UniProt Q96GD4). Kind of assay: Inhibition of aurora-B (unknown origin).
Assay [13] deals with ALK tyrosine kinase receptor (Homo sapiens, UniProt Q9UM73). Put plainly: Inhibition of ALK (unknown origin).
Assay [14] deals with Serine/threonine-protein kinase N1 (Homo sapiens, UniProt Q16512). Kind of assay: Inhibition of PRK1 (unknown origin).

As to `COCc1c(C)c(O)c(O)c(O)c1C=O`, the IC50 was 3.5 µM in [1]; 20.6 µM on Focal adhesion kinase 1; greater than 30 µM in [2]; greater than 30 µM in assay [3]; greater than 30 µM in [4]; 11 µM in assay [5]. For the same compound, the IC50 in [6] was greater than 30 µM; in [7], greater than 30 µM; in [8], greater than 30 µM; in assay [9], greater than 30 µM; in assay [10] it was 20 µM; in [11], greater than 30 µM. Besides, the IC50 in assay [12] was greater than 30 µM; on Aurora kinase B, 20.6 µM; in assay [13] it was 9.33 µM; in [14], greater than 30 µM.

`Cc1c(O)c(O)c(O)c2c1COC2=O`: the IC50 was 0.56 µM in assay [1]; 7.52 µM against Focal adhesion kinase 1; 13.6 µM in assay [2]; greater than 100 µM in [3]; 10 µM in assay [4]; 2.46 µM in assay [5]. Moreover, the half-inhibitory concentration (IC50) in [6] was 23.2 µM; in [7], 6.55 µM; in assay [8], 8.63 µM; in assay [9] it was 5.96 µM; in [10], 3.56 µM; in assay [11] it was 11.8 µM. Further, the IC50 in assay [12] amounted to 21.3 µM; at Aurora kinase B, 8.69 µM; in [13] it was 5.02 µM; in [14], 18.6 µM.

Take `COC1OC(=O)c2c(O)c(O)c(O)c(C)c21` (racemic): the IC50 in [1] is 2.04 µM; against Focal adhesion kinase 1 it was 16.3 µM; in assay [2], greater than 30 µM; in assay [3], greater than 30 µM; in [4], 29.8 µM; in assay [5], 6.39 µM. Moreover, the IC50 is greater than 30 µM in assay [6]; 11.8 µM in assay [7]; 9.65 µM in assay [8]; 26.4 µM in [9]; 12.6 µM in assay [10]; greater than 30 µM in [11]. Besides, the half-maximal inhibitory concentration (IC50) is greater than 30 µM in [12], 22.6 µM against Aurora kinase B, 9.76 µM in [13] and greater than 30 µM in assay [14].

With `O=c1c(O)c(-c2ccc(O)c(O)c2)oc2cc(O)cc(O)c12` [QUERCETIN], the IC50 in assay [1] was 0.3 µM; against Focal adhesion kinase 1, 1.2 µM; in assay [2], 4.23 µM; in assay [3], greater than 10 µM; in assay [4], 5.09 µM; in [5], 0.96 µM. Also, the IC50 is 5.39 µM in [6]; 5.73 µM in assay [7]; 0.58 µM in assay [8]; 0.12 µM in [10]; 0.91 µM at Aurora kinase B; 3.32 µM in assay [13]. The compound also showed an IC50 in assay [14] of 5.8 µM.

A word on the IC50: it is the concentration that gives 50% inhibition. Higher therefore signals a need for much substance.
